Experimental data: patent publication US9371519B2, “Complex type sugar chain hydrolase” (National Institute of Advanced Industrial Science and …, priority 2011, dated 2016)

Legend:
[1] = molecular target: T1, Mucor hiemalis endo-β-N-acetylglucosaminidase Endo-M (commercially available) (Mucor hiemalis, UniProt Q9C1S6); test: Km and Vmax for NGA2-Asn-Fmoc hydrolysis, commercially available Endo-M (HPLC); assay type: biochemical; conditions: sodium acetate pH 6.0, 0.5 M NaCl, 50° C.
T1 sequence (Q9C1S6 1-744): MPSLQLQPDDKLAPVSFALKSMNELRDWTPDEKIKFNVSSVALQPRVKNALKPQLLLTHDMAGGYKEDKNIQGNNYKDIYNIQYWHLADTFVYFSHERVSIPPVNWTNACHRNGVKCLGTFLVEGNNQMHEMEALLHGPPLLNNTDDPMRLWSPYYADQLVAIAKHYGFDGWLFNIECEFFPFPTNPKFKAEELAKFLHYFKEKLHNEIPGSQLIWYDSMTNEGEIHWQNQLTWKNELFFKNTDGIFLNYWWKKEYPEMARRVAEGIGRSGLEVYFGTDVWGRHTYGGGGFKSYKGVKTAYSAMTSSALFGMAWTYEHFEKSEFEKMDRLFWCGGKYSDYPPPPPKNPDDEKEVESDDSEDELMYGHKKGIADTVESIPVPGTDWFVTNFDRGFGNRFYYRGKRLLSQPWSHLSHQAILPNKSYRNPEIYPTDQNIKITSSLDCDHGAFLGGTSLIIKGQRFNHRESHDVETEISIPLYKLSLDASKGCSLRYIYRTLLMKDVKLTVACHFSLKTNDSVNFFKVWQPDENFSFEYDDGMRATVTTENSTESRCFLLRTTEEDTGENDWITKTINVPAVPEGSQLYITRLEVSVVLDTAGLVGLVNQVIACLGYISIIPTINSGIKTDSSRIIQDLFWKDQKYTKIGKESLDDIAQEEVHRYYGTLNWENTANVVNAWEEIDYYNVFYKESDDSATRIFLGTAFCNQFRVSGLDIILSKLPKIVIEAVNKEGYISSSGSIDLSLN
Procedure: The enzyme activity was measured as follows. A reaction solution (total volume: 10 μl) containing 100 mM of a sodium acetate buffer (pH 5.3) at the final concentration, 0.5 M NaCl, 10 μM of a Fmoc-labeled biantennary complex type sugar chain (NGA2-Asn-Fmoc), and an Endo-Om crude enzyme solution was incubated at 50° C. for 1 hour, and heated at 95° C. for 5 minutes, thereby stopping the enzyme reaction. The reaction solution was subjected to HPLC, and the enzymatic activity was calculated from the peak area ratio between the NGA2-Asn-Fmoc as the substrate and its hydrolysate. […] Isocratic elution was carried out at a flow rate of 1.0 ml/min, and the solvent B: 43%, and detection was carried out using a fluorescence detector (excitation wavelength 265 nm, and fluorescence wavelength 315 nm). […]
(§1) The properties of Endo-Om were studied using a purified enzyme solution. […] According to the method described in Example 4, the activity of the Endo-Om purified enzyme solution when the substrate concentration was 1 mM was measured, and the specific activity was calculated. In addition, activity measurement was carried out using NGA2-Asn-Fmoc at different concentrations as the substrates, and Km and Vmax were calculated. For comparison, the specific activity, Km, and Vmax of the commercially available Endo-M were calculated by the same method. […]

[2] = molecular target: T2, Ogataea minuta endo-β-N-acetylglucosaminidase Endo-Om, wild type (recombinant, purified), SEQ ID NO: 1 (Ogataea minuta, UniProt R4WHQ8); test: Km and Vmax for NGA2-Asn-Fmoc hydrolysis, purified Endo-Om (HPLC); assay type: biochemical
T2 sequence (R4WHQ8 1-772): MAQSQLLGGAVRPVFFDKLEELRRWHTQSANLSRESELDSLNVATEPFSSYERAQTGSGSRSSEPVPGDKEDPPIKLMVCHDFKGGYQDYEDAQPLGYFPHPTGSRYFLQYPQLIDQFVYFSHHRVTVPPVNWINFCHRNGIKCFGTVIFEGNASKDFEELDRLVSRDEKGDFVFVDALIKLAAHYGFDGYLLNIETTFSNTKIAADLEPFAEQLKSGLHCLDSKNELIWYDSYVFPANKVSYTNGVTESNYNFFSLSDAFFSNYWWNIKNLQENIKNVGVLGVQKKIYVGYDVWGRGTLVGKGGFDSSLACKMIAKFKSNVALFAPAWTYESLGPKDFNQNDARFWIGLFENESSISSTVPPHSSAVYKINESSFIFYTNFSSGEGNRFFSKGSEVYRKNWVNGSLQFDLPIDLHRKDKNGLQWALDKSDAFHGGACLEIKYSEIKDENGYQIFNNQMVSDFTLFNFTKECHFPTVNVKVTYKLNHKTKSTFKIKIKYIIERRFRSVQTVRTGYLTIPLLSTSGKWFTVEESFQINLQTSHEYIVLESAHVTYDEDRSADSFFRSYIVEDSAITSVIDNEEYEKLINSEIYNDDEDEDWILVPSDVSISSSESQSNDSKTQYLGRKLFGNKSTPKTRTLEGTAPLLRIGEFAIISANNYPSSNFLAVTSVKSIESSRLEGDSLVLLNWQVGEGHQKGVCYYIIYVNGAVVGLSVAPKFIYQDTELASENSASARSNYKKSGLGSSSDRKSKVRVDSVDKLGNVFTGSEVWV
Procedure: The enzyme activity was measured as follows. A reaction solution (total volume: 10 μl) containing 100 mM of a sodium acetate buffer (pH 5.3) at the final concentration, 0.5 M NaCl, 10 μM of a Fmoc-labeled biantennary complex type sugar chain (NGA2-Asn-Fmoc), and an Endo-Om crude enzyme solution was incubated at 50° C. for 1 hour, and heated at 95° C. for 5 minutes, thereby stopping the enzyme reaction. The reaction solution was subjected to HPLC, and the enzymatic activity was calculated from the peak area ratio between the NGA2-Asn-Fmoc as the substrate and its hydrolysate. The column was Asahipak NH2P-50 4E (4.6.250 mm, Shodex), and the solvents were acetonitrile (solvent A) and 200 mM of TEAA (pH 7.0, GLEN RESEARCH: solvent B). Isocratic elution was carried out at a flow rate of 1.0 ml/min, and the solvent B: 43%, and detection was carried out using a fluorescence detector (excitation wavelength 265 nm, and fluorescence wavelength 315 nm). The activity hydrolyzing […] of NGA2-Asn-Fmoc in 1 minute under the above-described reaction conditions was defined as 1 Unit of the enzymatic activity of Endo-Om.
as §1, with “solution. According to the method described in Example 4, the Endo-Om crude enzyme solution prepared from 100 ml culture was substituted with an equilibration buffer (20 mM sodium phosphate buffer (pH 7.4), 0.5 M NaCl, 0.5 mM PMSF, 50 mM imidazole) by dialysis.” for “solution.”

CC(=O)N[C@@H]1[C@@H](O)[C@H](O[C@@H]2O[C@H](CO)[C@@H](O[C@@H]3O[C@H](CO[C@H]4O[C@H](CO)[C@@H](O)[C@H](O)[C@@H]4O[C@@H]4O[C@H](CO)[C@@H](O)[C@H](O)[C@H]4NC(C)=O)[C@@H](O)[C@H](O[C@H]4O[C@H](CO)[C@@H](O)[C@H](O)[C@@H]4O[C@@H]4O[C@H](CO)[C@@H](O)[C@H](O)[C@H]4NC(C)=O)[C@@H]3O)[C@H](O)[C@H]2NC(C)=O)[C@@H](CO)O[C@H]1NC(=O)C[C@H](NC(=O)OCC1c2ccccc2-c2ccccc21)C(=O)O [NGA2-Asn-Fmoc]
Vmax [1]: 0.070 µmol/min/mg
Km ([2]; Endo-Om, sodium acetate pH 5.3, 0.5 M NaCl, 50° C., NGA2-Asn-Fmoc at different concentrations): 5.54 mM
Vmax ([2]; Endo-Om, sodium acetate pH 5.3, 0.5 M NaCl, 50° C., unit as printed in b33 and b95): 3.88 µmol/min/mg
Vmax of Endo-Om relative to Vmax of Endo-M ([2]; ratio Endo-Om / Endo-M): 55 times
